A short description of data set [1]: DPPH test, activity as free-radical scavenger. Type of data set: biochemical. The note with it: EC = c(test compound)/c(DPPH); DPPH 100 μmol/l in methanol; absorption at 515 nm. The protocol:
The activity of the compounds according to Examples 1 to 7 as free-radical scavengers was compared with the conventional free-radical scavenger. For this purpose, the DPPH (1,1-diphenyl-2-picryl-hydrazyl) test for the removal of […] was used.
DPPH was dissolved in methanol to a concentration of 100 μmol/l. A series of dilutions of the illustrative compound, vitamin C, α tocopherol, butylated hydroxytoluene and ferulic acid in methanol were prepared. Methanol was used as the control. 2500 μl of the DPPH solution were mixed with 500 μl of each test solution and the decrease in absorption at 515 nm was read until the decrease was less than 2% per hour. The activity of the test substances as free-radical scavengers was calculated using the following equation:
Activity as free-radical scavenger (%)=100-(absorption of the test
compounds)/ (absorption of the control)×100.

Data set [2] can be described thus: Activity as antioxidants: accelerated autoxidation of lipids by air (Rancimat). The note with it: AOI = IP(with test solution)/IP(control sample); 0.05% test substance; soybean oil, 100° C., air 20 l/h. The procedure: The activity of the illustrative compounds 1 to 7 as antioxidants was compared with that of traditional antioxidants. The test system used was the accelerated autoxidation of lipids by air with or without antioxidant using the Rancimat apparatus (Rancimat is a registered trade mark of Metrohm AG, Herisau, Switzerland). The illustrative compounds, vitamin C, α-tocopherol, ferulic acid and butylated hydroxytoluene were dissolved in methanol or acetone, and 100 μl of each test solution were added to a 3 g prepared oil sample (soybean oil, purified over alumina type N). In a control sample, only solvent was added. A constant, dry stream of air (20 l/h) was blown through the oil sample, which contained the test solution and was heated to 100° C., and the volatile oxidation product (predominantly short-chain fatty acids such as formic or acetic acid) were collected in a trap containing water. The conductivity of this aqueous solution was continuously measured and recorded. […] The time to the increase is referred to as the induction period (IP). The following equation was used to calculate the antioxidative index (AOI): AOI=IP(with test solution) /IP(control sample)

A short description of data set [3]: Solubility in aqueous media (water/DMSO 95:5). It is filed as physicochemical. The procedure: The aqueous medium used by way, of example, was a mixture of 95 parts by weight of water and 5 parts by weight of DMSO. The compounds to be tested were weighed into a glass vessel, admixed with a defined amount of solvent and treated with ultrasound at room temperature for 5 min.

Where only a bound is given, the exact number is not on record here.

The text below walks through data of US6265611A, “Hydroxymandelic acid amides of phenolic amines” (Haarmann & Reimer GmbH, priority 1999, dated 2001).

In the case of `Cc1cc(C(C)(C)C)c(O)c(C(C)(C)C)c1` [Butylated hydroxytoluene, reference compound], in data set [1], the “EC50 (effective relative concentration at which 50% of the free radical DPPH had been removed)” value amounted to 0.240 mol/mol. In addition, in data set [2], the “antioxidative index (AOI) with 0.05% of test substance” value was determined as 4.77.

Turning to `COc1cc(C(O)C(=O)NCCc2ccc(O)c(O)c2)ccc1O` (centres unmarked) [Example 1, N-(3,4-dihydroxyphenethyl)-2-hydroxy-2-(4-hydroxy-3 methoxyphenyl)acetamide], in data set [3], the “Solubility in a mixture of water (95 parts by weight) and DMSO (5 parts by weight)” value (from here on “Solubility in a mixture of water”) is 5-10 % by weight. Moreover, in data set [1], the “EC50 (effective relative concentration at which 50% of the free radical DPPH had been removed)” value was 0.131 mol/mol. Besides, in data set [2], the “antioxidative index (AOI) with 0.05% of test substance” value came to 13.0.

For the compound `O=C(NCCc1ccc(O)c(O)c1)C(O)c1ccc(O)c(O)c1` (centres unmarked) [Example 2, N-(3,4-dihydroxyphenethyl)-2-(3,4-dihydroxyphenyl)-2-hydroxyacetamide], in data set [3], the “Solubility in a mixture of water” value is above 10 % by weight. In data set [1], the “EC50 (effective relative concentration at which 50% of the free radical DPPH had been removed)” value was found to be 0.104 mol/mol. The “antioxidative index (AOI) with 0.05% of test substance” value in data set [2] was 16.9.

For the compound `COc1cc(C(O)C(=O)NCc2ccc(O)c(O)c2)ccc1O` (centres unmarked) [Example 3, N-(3,4-dihydroxybenzyl)-2-hydroxy-2-(4-hydroxy-3methoxyphenyl)acetamide], in data set [3], the “Solubility in a mixture of water” value is recorded as above 10 % by weight. The “EC50 (effective relative concentration at which 50% of the free radical DPPH had been removed)” value in data set [1] is recorded as 0.195 mol/mol. For the same compound, the “antioxidative index (AOI) with 0.05% of test substance” value in data set [2] was 9.8.

Consider `COc1cc(C(O)C(=O)NCc2cc(O)c(O)c(O)c2)ccc1O` (centres unmarked) [Example 4, 2-Hydroxy-2-(4-hydroxy-3-methoxyphenyl)-N-(3,4,5-trihydroxybenzyl)acetamide], for which the “Solubility in a mixture of water” value in data set [3] is listed as 0.5-1 % by weight. For the same compound, the “EC50 (effective relative concentration at which 50% of the free radical DPPH had been removed)” value in data set [1] was determined as 0.198 mol/mol. The “antioxidative index (AOI) with 0.05% of test substance” value in data set [2] is listed as 11.0.

For the compound `COc1cc(CNC(=O)C(O)c2ccc(O)c(O)c2)ccc1O` (centres unmarked) [Example 5, 2-(3,4-Dihydroxyphenyl)-2-hydroxy-N-(4-hydroxy-3 methoxybenzyl)acetamide], the “Solubility in a mixture of water” value in data set [3] is on record as 0.05-0.1 % by weight. The “EC50 (effective relative concentration at which 50% of the free radical DPPH had been removed)” value in data set [1] turned out to be 0.199 mol/mol. The “antioxidative index (AOI) with 0.05% of test substance” value in data set [2] came out at 12.6.

As for `O=C(NCc1ccc(O)c(O)c1)C(O)c1ccc(O)c(O)c1` (centres unmarked) [Example 6, N-(3,4-dihydroxybenzyl)-2-(3,4-dihydroxyphenyl)-2-hydroxyacetamide], the “Solubility in a mixture of water” value in data set [3] is on record as 0.1-0.5 % by weight. In addition, the “EC50 (effective relative concentration at which 50% of the free radical DPPH had been removed)” value in data set [1] is listed as 0.069 mol/mol. The “antioxidative index (AOI) with 0.05% of test substance” value in data set [2] is given as 17.5.

On to `O=C(NCc1cc(O)c(O)c(O)c1)C(O)c1ccc(O)c(O)c1` (centres unmarked) [Example 7, 2-(3,4-Dihydroxyphenyl)-2-hydroxy-N-(3,4,5-trihydroxybenzyl)acetamide], for which the “Solubility in a mixture of water” value in data set [3] was 0.5-1 % by weight. The “EC50 (effective relative concentration at which 50% of the free radical DPPH had been removed)” value in data set [1] is 0.085 mol/mol. Moreover, the “antioxidative index (AOI) with 0.05% of test substance” value in data set [2] worked out at 16.4.

In the case of `COc1cc(/C=C/C(=O)O)ccc1O` [Ferulic acid, reference compound], the “EC50 (effective relative concentration at which 50% of the free radical DPPH had been removed)” value in data set [1] came to 0.350 mol/mol. Also, the “antioxidative index (AOI) with 0.05% of test substance” value in data set [2] is listed as 1.79.

With `O=C1O[C@H]([C@@H](O)CO)C(O)=C1O` [Vitamin C, ascorbic acid, reference compound], the “EC50 (effective relative concentration at which 50% of the free radical DPPH had been removed)” value in data set [1] turned out to be 0.270 mol/mol. The “antioxidative index (AOI) with 0.05% of test substance” value in data set [2] worked out at 1.17.

Regarding `Cc1c(C)c2c(c(C)c1O)CCC(C)(CCCC(C)CCCC(C)CCCC(C)C)O2` (stereo not drawn) [α-Tocopherol, reference compound], in data set [1], the “EC50 (effective relative concentration at which 50% of the free radical DPPH had been removed)” value was determined as 0.250 mol/mol. For the same compound, the “antioxidative index (AOI) with 0.05% of test substance” value in data set [2] is listed as 5.05.
